tested on: RS4;11 cells; experiment: Cell viability assay (CellTiter-Glo) in RS4;11 cells; format: cell-based; conditions: Homo sapiens, 72 h; RS4;11 cells; cell viability, 3 days, CellTiter-Glo; read-out: IC50
Summary of the method: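 RS4;11 cells seeded at 5000 per well, exposed for 3 days to 8- or 12-point 3-fold serial dilutions. Viability read by CellTiter-Glo luminescence; IC50 fitted by nonlinear least-squares regression.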

Row | SMILES | IC50 [µM]
1 | Cc1ncsc1-c1ccc(CNC(=O)[C@@H]2C[C@@H](O)CN2C(=O)[C@@H](NC(=O)CCCCNC(=O)CN2CCN(c3ccc(Nc4nc5cccc(-c6ccc(S(C)(=O)=O)cc6)n5n4)cc3)CC2)C(C)(C)C)cc1 [JA-130, (2S,4R)-1-((S)-3,3-Dimethyl-2-(5-(2-(4-(4-((5-(4-(methylsulfonyl)phenyl)-[1,2,4]triazolo[1,5-a]pyridin-2-yl)amino)phenyl)piperazin-1-yl)acetamido)pentanamido)butanoyl)-4-hydroxy-N-(4-(4-methylthiazol-5-yl)benzyl)pyrrolidine-2-carboxamide] | > 10
2 | O=C1CCC(N2Cc3ccc(CCCCCCC(=O)N4CCC(n5cc(-c6cnc7cccc(-c8cc(F)c(CN9CCOCC9)c(F)c8)c7n6)cn5)CC4)cc3C2=O)C(=O)N1 (stereo not drawn) [JA-269, 3-(6-(7-(4-(4-(8-(3,5-difluoro-4-(morpholinomethyl)phenyl)quinoxalin-2-yl)-1H-pyrazol-1-yl)piperidin-1-yl)-7-oxoheptyl)-1-oxoisoindolin-2-yl)piperidine-2,6-dione] | 0.0038
3 | O=C(CN1CCC(n2cc(-c3cnc4cccc(-c5cc(F)c(CN6CCOCC6)c(F)c5)c4n3)cn2)CC1)NCCCCCNc1ccc2c(c1)C(=O)N(C1CCC(=O)NC1=O)C2=O (stereo not drawn) [JA-177, 2-(4-(4-(8-(3,5-Difluoro-4-(morpholinomethyl)phenyl)quinoxalin-2-yl)-1H-pyrazol-1-yl)piperidin-1-yl)-N-(5-((2-(2,6-dioxopiperidin-3-yl)-1,3-dioxoisoindolin-5-yl)amino)pentyl)acetamide] | 0.89
4 | Cc1ncsc1-c1ccc(CNC(=O)[C@@H]2C[C@@H](O)CN2C(=O)[C@@H](NC(=O)COCCOCCOCCNC(=O)CN2CCN(c3ccc(Nc4nc5cccc(-c6ccc(S(C)(=O)=O)cc6)n5n4)cc3)CC2)C(C)(C)C)cc1 [JA-131, (2S,4R)-1-((S)-2-(tert-Butyl)-17-(4-(4-((5-(4-(methylsulfonyl)phenyl)-[1,2,4]triazolo[1,5-a]pyridin-2-yl)amino)phenyl)piperazin-1-yl)-4,16-dioxo-6,9,12-trioxa-3,15-diazaheptadecanoyl)-4-hydroxy-N-(4-(4-methylthiazol-5-yl)benzyl)pyrrolidine-2-carboxamide] | > 10
5 | CS(=O)(=O)c1ccc(-c2cccc3nc(Nc4ccc(N5CCN(CC(=O)NCCCCNc6ccc7c(c6)C(=O)N(C6CCC(=O)NC6=O)C7=O)CC5)cc4)nn23)cc1 (stereo not drawn) [JA-205, N-(4-((2-(2,6-Dioxopiperidin-3-yl)-1,3-dioxoisoindolin-5-yl)amino)butyl)-2-(4-(4-((5-(4-(methylsulfonyl)phenyl)-[1,2,4]triazolo[1,5-a]pyridin-2-yl)amino)phenyl)piperazin-1-yl)acetamide] | 0.676
6 | Cc1ncsc1-c1ccc(CNC(=O)[C@@H]2C[C@@H](O)CN2C(=O)[C@@H](NC(=O)COCCOCCNC(=O)CN2CCC(n3cc(-c4cnc5cccc(-c6cc(F)c(CN7CCOCC7)c(F)c6)c5n4)cn3)CC2)C(C)(C)C)cc1 [JA-163, (2S,4R)-1-((S)-2-(tert-Butyl)-14-(4-(4-(8-(3,5-difluoro-4-(morpholinomethyl)phenyl)quinoxalin-2-yl)-1H-pyrazol-1-yl)piperidin-1-yl)-4,13-dioxo-6,9-dioxa-3,12-diazatetradecanoyl)-4-hydroxy-N-(4-(4-methylthiazol-5-yl)benzyl)pyrrolidine-2-carboxamide] | > 10
7 | Cc1ncsc1-c1ccc(CNC(=O)[C@@H]2C[C@@H](O)CN2C(=O)[C@@H](NC(=O)CCCCCCCCCC(=O)N2CCC(n3cc(-c4cnc5cccc(-c6cc(F)c(CN7CCOCC7)c(F)c6)c5n4)cn3)CC2)C(C)(C)C)cc1 [JA-059, (2S,4R)-1-[(2S)-2-[[11-[4-[4-[8-[3,5-Difluoro-4-(morpholinomethyl)phenyl]quinoxalin-2-yl]pyrazol-1-yl]-1-piperidyl]-11-oxo-undecanoyl]amino]-3,3-dimethyl-butanoyl]-4-hydroxy-N-[[4-(4-methylthiazol-5-yl)phenyl]methyl]pyrrolidine-2-carboxamide] | > 10
8 | Cc1ncsc1-c1ccc(CNC(=O)[C@@H]2C[C@@H](O)CN2C(=O)[C@@H](NC(=O)CCOCCOCCOCCOCCC(=O)N2CCN(c3ccc(Nc4nc5cccc(-c6ccc(S(C)(=O)=O)cc6)n5n4)cc3)CC2)C(C)(C)C)cc1 [JA-063, (2S,4R)-1-((S)-2-(tert-Butyl)-19-(4-(4-((5-(4-(methylsulfonyl)phenyl)-[1,2,4]triazolo[1,5-a]pyridin-2-yl)amino)phenyl)piperazin-1-yl)-4,19-dioxo-7,10,13,16-tetraoxa-3-azanonadecanoyl)-4-hydroxy-N-(4-(4-methylthiazol-5-yl)benzyl)pyrrolidine-2-carboxamide] | > 10
9 | Cc1cnc(Nc2ccc(N3CCN(CC(=O)NCCCCCCCCCCC(=O)N[C@H](C(=O)N4C[C@H](O)C[C@H]4C(=O)NCc4ccc(-c5scnc5C)cc4)C(C)(C)C)CC3)cc2)nc1Nc1cccc(S(=O)(=O)NC(C)(C)C)c1 [JA-106, (2S,4R)-1-((S)-2-(11-(2-(4-(4-((4-((3-(N-(tert-Butyl)sulfamoyl)phenyl)amino)-5-methylpyrimidin-2-yl)amino)phenyl)piperazin-1-yl)acetamido)undecanamido)-3,3-dimethylbutanoyl)-4-hydroxy-N-(4-(4-methylthiazol-5-yl)benzyl)pyrrolidine-2-carboxamide] | > 10
10 | Cc1ncsc1-c1ccc(CNC(=O)[C@@H]2C[C@@H](O)CN2C(=O)[C@@H](NC(=O)CCOCCOCCC(=O)N2CCC(n3cc(-c4cnc5cccc(-c6cc(F)c(CN7CCOCC7)c(F)c6)c5n4)cn3)CC2)C(C)(C)C)cc1 [JA-056, (2S,4R)-1-[(2S)-2-[3-[2-[3-[4-[4-[8-[3,5-Difluoro-4-(morpholinomethyl)phenyl]quinoxalin-2-yl]pyrazol-1-yl]-1-piperidyl]-3-oxo-propoxy]ethoxy]propanoylamino]-3,3-dimethyl-butanoyl]-4-hydroxy-N-[[4-(4-methylthiazol-5-yl)phenyl]methyl]pyrrolidine-2-carboxamide] | > 10
11 | Cc1ncsc1-c1ccc(CNC(=O)[C@@H]2C[C@@H](O)CN2C(=O)[C@@H](NC(=O)CCCC(=O)N2CCN(c3ccc(Nc4nc5cccc(-c6ccc(S(C)(=O)=O)cc6)n5n4)cc3)CC2)C(C)(C)C)cc1 [JA-066, (2S,4R)-1-((S)-3,3-Dimethyl-2-(5-(4-(4-((5-(4-(methylsulfonyl)phenyl)-[1,2,4]triazolo[1,5-a]pyridin-2-yl)amino)phenyl)piperazin-1-yl)-5-oxopentanamido)butanoyl)-4-hydroxy-N-(4-(4-methylthiazol-5-yl)benzyl)pyrrolidine-2-carboxamide] | > 10
12 | CS(=O)(=O)c1ccc(-c2cccc3nc(Nc4ccc(N5CCN(C(=O)CCCCCOc6ccc7c(c6)CN(C6CCC(=O)NC6=O)C7=O)CC5)cc4)nn23)cc1 (stereo not drawn) [JA-261, 3-(5-((6-(4-(4-((5-(4-(methylsulfonyl)phenyl)-[1,2,4]triazolo[1,5-a]pyridin-2-yl)amino)phenyl)piperazin-1-yl)-6-oxohexyl)oxy)-1-oxoisoindolin-2-yl)piperidine-2,6-dione] | 0.0328
13 | Cc1cnc(Nc2ccc(N3CCN(C(=O)CCCNc4ccc5c(c4)C(=O)N(C4CCC(=O)NC4=O)C5=O)CC3)cc2)nc1Nc1cccc(S(=O)(=O)NC(C)(C)C)c1 (stereo not drawn) [JA-227, N-(tert-butyl)-3-((2-((4-(4-(4-((2-(2,6-dioxopiperidin-3-yl)-1,3-dioxoisoindolin-5-yl)amino)butanoyl)piperazin-1-yl)phenyl)amino)-5-methylpyrimidin-4-yl)amino)benzenesulfonamide] | 3.11
14 | Cc1cnc(Nc2ccc(N3CCN(CC(=O)NCCNc4ccc5c(c4)C(=O)N(C4CCC(=O)NC4=O)C5=O)CC3)cc2)nc1Nc1cccc(S(=O)(=O)NC(C)(C)C)c1 (stereo not drawn) [JA-242, 2-(4-(4-((4-((3-(N-(tert-butyl)sulfamoyl)phenyl)amino)-5-methylpyrimidin-2-yl)amino)phenyl)piperazin-1-yl)-N-(2-((2-(2,6-dioxopiperidin-3-yl)-1,3-dioxoisoindolin-5-yl)amino)ethyl)acetamide] | 0.543
15 | CS(=O)(=O)c1ccc(-c2cccc3nc(Nc4ccc(N5CCN(C(=O)CCCCCOc6ccc7c(c6)C(=O)N(C6CCC(=O)NC6=O)C7)CC5)cc4)nn23)cc1 (stereo not drawn) [JA-277, 3-(6-((6-(4-(4-((5-(4-(Methylsulfonyl)phenyl)-[1,2,4]triazolo[1,5-a]pyridin-2-yl)amino)phenyl)piperazin-1-yl)-6-oxohexyl)oxy)-1-oxoisoindolin-2-yl)piperidine-2,6-dione] | 0.447
16 | Cc1cnc(Nc2ccc(N3CCN(C(=O)CCC(=O)N[C@H](C(=O)N4C[C@H](O)C[C@H]4C(=O)NCc4ccc(-c5scnc5C)cc4)C(C)(C)C)CC3)cc2)nc1Nc1cccc(S(=O)(=O)NC(C)(C)C)c1 [JA-022, (2S,4R)-1-((S)-2-(4-(4-(4-((4-((3-(N-(tert-Butyl)sulfamoyl)phenyl)amino)-5-methylpyrimidin-2-yl)amino)phenyl)piperazin-1-yl)-4-oxobutanamido)-3,3-dimethylbutanoyl)-4-hydroxy-N-(4-(4-methylthiazol-5-yl)benzyl)pyrrolidine-2-carboxamide] | > 10
17 | CS(=O)(=O)c1ccc(-c2cccc3nc(Nc4ccc(N5CCN(C(=O)CCOCCOCCNc6cccc7c6C(=O)N(C6CCC(=O)NC6=O)C7=O)CC5)cc4)nn23)cc1 (stereo not drawn) [JA-075, 2-(2,6-Dioxopiperidin-3-yl)-4-((2-(2-(3-(4-(4-((5-(4-(methylsulfonyl)phenyl)-[1,2,4]triazolo[1,5-a]pyridin-2-yl)amino)phenyl)piperazin-1-yl)-3-oxopropoxy)ethoxy)ethyl)amino)isoindoline-1,3-dione] | 2.43
18 | O=C(CN1CCC(n2cc(-c3cnc4cccc(-c5cc(F)c(CN6CCOCC6)c(F)c5)c4n3)cn2)CC1)NCCOCCOCCOCCOCCNc1ccc2c(c1)C(=O)N(C1CCC(=O)NC1=O)C2=O (stereo not drawn) [JA-172, 2-(4-(4-(8-(3,5-Difluoro-4-(morpholinomethyl)phenyl)quinoxalin-2-yl)-1H-pyrazol-1-yl)piperidin-1-yl)-N-(14-((2-(2,6-dioxopiperidin-3-yl)-1,3-dioxoisoindolin-5-yl)amino)-3,6,9,12-tetraoxatetradecyl)acetamide] | > 10

— patent publication US20230093099A1, “COMPOUNDS AND METHODS OF TREATING CANCERS” (CULLGEN (SHANGHAI), INC., priority 2019, published 2023)
